# In PMC10096344 (Molecules, 2023):
# Tested on: P. aeruginosa (ATCC27853) biofilm
# Assay: Bacterial biofilm formation (FITC staining, crystal violet staining)
# Assay type: cell-based, Pseudomonas aeruginosa
# Procedure: The bacterial biofilm growth and measurement was performed according to our previously reported method. Briefly, P. aeruginosa (ATCC27853) was cultured in the tube with nutrient broth containing 2% (w/v) glucose, shaken at 220 rpm for 12 h at 37 °C. The suspension was diluted to 1 × 10^6 CFU/mL and added to 96-well plates, the bacteria was cultured for 24 h at 37 °C for biofilm growth and the planktonic bacterial of each well was removed by PBS rinsing three times. To observe the biofilm formation, the fluorescein isothiocyanate (FITC) was added into the plates and incubated for 2 h at 37 °C; the labeled biofilm was then washed by PBS and visualized under the fluorescence microscopy (Olympus CKX53, Tokyo, Japan). The measurement of biofilm was performed according to the following procedure: the mature biofilm was fixed with 150 μL methanol and left to air dry, then stained with 150 μL of 1% (w/v) crystal violet solution for 15 min at room temperature. The plate was rinsed with PBS three times and 150 μL of glacial acetic acid was added to each well; the optical density was measured at 630 nm optical density using a microplate reader (Bio-Tek ELX800, Berten, USA).
compound,measurement,setting,value
N#CC1=C(N)Oc2c(c(=O)oc3ccccc23)C1c1cc(C(F)(F)F)cc(C(F)(F)F)c1 (stereo not drawn) [LP4C],"biofilm formation, crystal violet staining",LP4C 5 μg/mL to 200 μg/mL,could inhibit the biofilm formation in a dose-dependent manner
same,"formation of biofilm, FITC staining",LP4C 5-200 μg/mL vs Vehicle Treatment Group,suppressed the formation of biofilm in a dose-dependent manner
same,concentration at which biofilm formation was still inhibited,inhibited even at this concentration,5 µg/mL
